The values below are quoted from earlier work in PMC9099118 (Clinical and Translational Science, 2022).

SMILES strings stand for the structures.

The conditions of this series: Genuair multidose DPI, HVs; cited from earlier work.

For the compound `O=C(O[C@H]1C[N+]2(CCCOc3ccccc3)CCC1CC2)C(O)(c1cccs1)c1cccs1` [aclidinium bromide], the “mean emitted lung dose” value is reported as “approximately 35%”.
